Columns and labels:
[1] = Inhibition of human AQP4b-mediated water transport in Xenopus oocytes; details: Oocyte
Oocyte = assay: Inhibition of human AQP4b-mediated water transport in Xenopus oocytes at 20 uM; format: cell-based

| SMILES | IC50 [1] [µM] | inhibition (Oocyte) [%] |
| --- | --- | --- |
| CC(=O)Nc1nnc(S(N)(=O)=O)s1 [ACETAZOLAMIDE] | 0.9 | – |
| CCOc1ccc2nc(S(N)(=O)=O)sc2c1 | – | 68 |
| CC(=O)Nc1ccc(S(N)(=O)=O)cc1 | – | 23 |

— ChEMBL document CHEMBL1144582, “Identification of arylsulfonamides as Aquaporin 4 inhibitors” (Bioorg Med Chem Lett, 2007)
